Experimental data from patent US20260337193A1, “SMALL MOLECULE INHIBITORS OF UBIQUITIN SPECIFIC PROTEASE 1 (USP1) AND USES THEREOF” (Insilico Medicine IP Limited, priority 2023, published 2026).
pIC50: −log10 of the molar value.

Experiments:
[1] = biological target: T1, Human recombinant USP1/UAF1 (Homo sapiens, UniProt O94782); experiment: Enzymatic assay: USP1/UAF1 deubiquitination of Ubiquitin Rhodamine 110 (kinetic fluorescence); assay type: biochemical; conditions: 2 nM USP1/UAF1, 15 min preincubation at RT, HEPES pH 8.0, 500 nM Ubiquitin Rhodamine 110
T1 construct: purchased R & D E-568-050; host or cells: baculovirus infected Sf21 cells
Protocol: Example A1: Enzymatic Assay
Human recombinant USP1/UAF1 expressed in baculovirus infected Sf21 cells were used (R & D, E-568-050). Test compound and/or vehicle was incubated with 2 nM of USP1/UAF1 in modified HEPES buffer pH 8.0 for 15 minutes at RT. The reaction was initiated by addition of 500 nM of Ubiquitin Rhodamine 110 (R & D, U-555-050) for kinetic reading. Slope change of fluorescence intensity was read spectrofluorimetrically at 485 nm/535 nm. Dose response of test compounds or reference compound ML-323 was analyzed by nonlinear regression of GraphPad prism software.

MDA-MB-436 cells = experiment: MDA-MB-436 breast cancer cell proliferation assay (CellTiter-Glo); assay type: cell-based; conditions: Homo sapiens, 168 h, 7 days, 37° C.
Protocol: Example A2: MDA-MB-436 Breast Cancer Cell Culture
MDA-MB-436 cells were grown in Leibovitz's L-15 medium with 10 μg/ml insulin, 16 μg/ml glutathione, 10% FBS. Cells were passaged at subconfluence after trypsinization and maintained in incubators at 37° C. in a humidified atmosphere with 5% CO2.
Example A3: MDA-MB-436 Breast Cancer Cell Proliferation Assay
Cell proliferation was determined using CellTiter-Glo® Luminescent Cell Viability Assay (Promega, #G7573). MDA-MB-436 cells were seeded in 384-well plates and allowed to attach for 24 h. Compounds were added into 384-well plate by ECHO, and incubated at 37° C. in a humidified atmosphere with 5% CO2. After 7 days, CellTiter-Glo® was added into 384 well plates, contents were mixed on an orbital shaker at 400 g for 2 min before centrifuging the plate for 2 min at 1000 rpm. After incubation at RT for 30 min, luminescence was read on envision.

T1 sequence (O94782 whole entry): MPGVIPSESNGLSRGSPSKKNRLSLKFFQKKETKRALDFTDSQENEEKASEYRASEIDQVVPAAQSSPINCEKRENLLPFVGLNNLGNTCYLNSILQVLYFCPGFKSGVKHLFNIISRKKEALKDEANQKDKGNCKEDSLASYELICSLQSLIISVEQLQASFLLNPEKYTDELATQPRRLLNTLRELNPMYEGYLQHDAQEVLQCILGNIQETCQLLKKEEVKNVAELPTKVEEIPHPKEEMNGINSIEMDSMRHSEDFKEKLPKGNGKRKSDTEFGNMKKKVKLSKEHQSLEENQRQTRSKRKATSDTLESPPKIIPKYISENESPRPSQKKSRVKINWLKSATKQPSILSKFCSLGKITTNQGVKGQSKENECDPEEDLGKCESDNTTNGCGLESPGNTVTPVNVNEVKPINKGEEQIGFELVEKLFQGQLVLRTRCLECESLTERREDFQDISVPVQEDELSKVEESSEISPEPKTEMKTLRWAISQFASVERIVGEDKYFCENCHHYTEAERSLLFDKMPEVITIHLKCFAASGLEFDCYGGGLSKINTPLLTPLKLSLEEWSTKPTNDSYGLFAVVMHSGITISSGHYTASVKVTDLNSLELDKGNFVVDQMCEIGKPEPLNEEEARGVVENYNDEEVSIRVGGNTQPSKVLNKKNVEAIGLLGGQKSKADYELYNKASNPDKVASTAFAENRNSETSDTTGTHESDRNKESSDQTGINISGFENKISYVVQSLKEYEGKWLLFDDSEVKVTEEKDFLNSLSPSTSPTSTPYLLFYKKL
T1 sequence (Q8TAF3 whole entry partner): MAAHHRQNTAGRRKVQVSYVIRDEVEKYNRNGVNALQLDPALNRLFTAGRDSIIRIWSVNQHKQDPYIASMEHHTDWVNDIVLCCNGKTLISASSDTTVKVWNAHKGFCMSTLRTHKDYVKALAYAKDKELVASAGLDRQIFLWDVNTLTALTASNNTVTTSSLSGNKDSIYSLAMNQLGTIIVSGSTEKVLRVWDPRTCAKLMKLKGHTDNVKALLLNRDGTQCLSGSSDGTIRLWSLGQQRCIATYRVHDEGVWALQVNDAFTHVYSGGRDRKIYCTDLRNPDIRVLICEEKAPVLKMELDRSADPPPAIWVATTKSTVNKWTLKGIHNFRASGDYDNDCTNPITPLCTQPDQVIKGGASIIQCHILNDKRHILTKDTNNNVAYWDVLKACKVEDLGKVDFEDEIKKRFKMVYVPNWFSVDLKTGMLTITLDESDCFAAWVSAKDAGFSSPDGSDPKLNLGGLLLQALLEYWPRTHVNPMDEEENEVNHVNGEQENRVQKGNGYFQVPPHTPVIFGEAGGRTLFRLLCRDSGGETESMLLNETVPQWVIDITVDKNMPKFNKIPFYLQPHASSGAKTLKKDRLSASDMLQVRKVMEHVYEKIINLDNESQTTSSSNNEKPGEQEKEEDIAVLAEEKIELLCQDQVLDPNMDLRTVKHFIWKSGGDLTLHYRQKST

pIC50 [1]: > 7.30 | pIC50 (MDA-MB-436 cells): 6.00 to 7.30
SMILES: CCn1cc(C(F)(F)F)nc1-c1cnc(N2CCc3c(C)nn(-c4c(OC)ncnc4C4CC4)c3C2)cn1 [Compound 32, 1-(4-cyclopropyl-6-methoxypyrimidin-5-yl)-6-(5-(1-ethyl-4-(trifluoromethyl)-1H-imidazol-2-yl)pyrazin-2-yl)-3-methyl-4,5,6,7-tetrahydro-1H-pyrazolo[3,4-c]pyridine]
